Assay results reported in patent US5196352A, “New FK-506 cytosolic binding protein” (Merck & Co., Inc., priority 1991, dated 1993).

Columns and labels:
[1] = target: HCB protein PPIase activity (Homo sapiens, UniProt P62942); assay: PPIase assay of HCB protein (N-succinyl-Ala-Ala-Pro-Phe-p-nitroanilide, chymotrypsin coupled)
Experimental: (§1) Briefly, the PPIase assay measures the "cis" to "trans" isomerization of the proline-alanine peptide bond in the peptide, N-succinyl-Ala-Ala-Pro-Phe-p-nitroanilide. When in the "trans" form, the peptide is readily cleaved by chymotrypsin and the appearance of p-nitroanilide can be quantitated spectrophotometrically at 405 nm.
(§2) After 1.0 minutes, 30 ul of 2.0 mg/ml chymotrypsin (Sigma) in 100 mM Tris-HCl, pH 7.8 was added. After brief mixing, the absorbance was monitored at 405 nm in either a Perkin-Elmer 4B or Beckman DU 68 spectrophotometer. Absorbance measurements were taken at 3 or 5 second intervals for 4 minutes. A plot of Abs405 [steady state]--Abs405[time=t] versus time was made on semi-log paper. From the straight line, the time constant for Abs405 [steady state]--Abs405 [time=t] to fall by l/e was calculated. The reciprocal of this constant yields the rate constant k.

[2] = test system: low molecular weight cytosolic component; assay: Direct binding of [3H]FK-506 to JURKAT cytosol, complex by HPLC gel filtration, competition with unlabeled compound; design: species or system human; conditions: 200 fold molar excess of unlabeled compound; 16 nM [3H]FK-506, 200 μg cytosol protein
Experimental: A cell-free extract was prepared from JURKAT cells by lysing […] cells in 0.5 ml of 10 mM Tris-HCl, pH 7.5 containing 1 mM MgCl as described in the legend for FIG. 3.

[3] = test system: cyclophilin PPIase activity; conditions: concentration of 1 uM
Experimental: as §1, §2

[4] = target: purified calf thymus cyclophilin (Bos taurus, UniProt P62935); assay: LH-20 binding assay with purified cyclophilin; conditions: for Bound (cpm), specifically bound: cyclophilin, 100 ng, 6.0 nM labeled compound
[5] = test system: JURKAT cytosol; assay: LH-20 binding assay with JURKAT cytosol; design: species or system human; conditions: for Bound (cpm), specifically bound: 0.5 nM labeled compound; for effect of heating on binding to JURKAT cytosol (in words): heated cytosol
[6] = target: T1, JURKAT cytosol (Homo sapiens, UniProt P62942); assay: LH-20 binding assay with JURKAT cytosol
T1 construct: endogenous in cells; host or cells: JURKAT (human T-cell line), crude cytosol

[7] = test system: IL-2 secretion in JURKAT cells; assay: Inhibition of IL-2 secretion in JURKAT cells stimulated with PMA and ionomycin (ELISA); type: cell-based, human
Experimental: Inhibition of IL-2 secretion in JURKAT cells stimulated with PMA and ionomycin by FK-506 and [^3 H]dihydro FK-506. JURKAT cells (equivalent to those available from the ATCC, supra) were cultured in RPMI 1640 media (Cellgro, Mediatech, Wash. D.C.) containing 1% Pen/Strep (Gibco), 1 mM Glutamine and 10% heat-inactivated fetal calf serum (Hazleton). For assay of IL-2 secretion by JURKAT cells, cells were cultured for 16 hr. in 96-well microtiter plates (Costar) at […] cells/ml in the above media containing 10 ng/ml of PMA (Sigma) and 5 μM ionomycin (Calbiochem) along with the concentrations of FK-506 or [^3 H]FK-506 indicated.

[8] = JURKAT cytosol 40 μg heated 56 C., 15 min.

Sequence of purified calf thymus cyclophilin (P62935 whole entry): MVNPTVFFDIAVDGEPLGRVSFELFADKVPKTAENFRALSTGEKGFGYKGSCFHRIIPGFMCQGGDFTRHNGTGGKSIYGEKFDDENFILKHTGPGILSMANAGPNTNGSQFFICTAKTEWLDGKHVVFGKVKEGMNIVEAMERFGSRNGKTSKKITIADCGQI
Sequence of HCB protein PPIase activity (P62942 whole entry): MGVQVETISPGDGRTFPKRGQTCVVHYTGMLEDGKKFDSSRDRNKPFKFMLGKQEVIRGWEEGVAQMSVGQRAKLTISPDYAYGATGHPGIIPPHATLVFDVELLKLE
T1 sequence (P62942 2-108): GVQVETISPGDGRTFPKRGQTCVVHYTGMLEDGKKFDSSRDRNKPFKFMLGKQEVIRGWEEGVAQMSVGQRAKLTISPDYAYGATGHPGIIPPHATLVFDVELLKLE

| SMILES | inhibition of HCB protein PPIase activity (in words) [1] | inhibition of the formation of the [^3 H]FK-506 complex [2] | inhibition of cyclophilin PPIase activity (in words) [3] | Bound (cpm), specifically bound [4] | Bound (cpm), specifically bound [5, 8] | Bound (cpm), specifically bound ([5]; JURKAT cytosol, 40 μg) | effect of heating on binding to JURKAT cytosol (in words) [5] | specific binding to purified calf thymus cyclophilin (in words) ([4]; LH-20 assay) | Kd [6] | IC50 ([7]; Homo sapiens, Jurkat, 16 h, read-out: concentration of inhibiting IL-2 secretion in JURKAT) | inhibition of IL-2 secretion in JURKAT cells (in words) ([7]; PMA and ionomycin) | potency as inhibitor of IL-2 secretion, times less potent than the parent compound ([7]; relative to FK-506, JURKAT cells, PMA and ionomycin) |
| --- | --- | --- | --- | --- | --- | --- | --- | --- | --- | --- | --- | --- |
| CCC[C@@H]1/C=C(\C)C[C@H](C)C[C@H](OC)[C@H]2O[C@@](O)(C(=O)C(=O)N3CCCC[C@H]3C(=O)O[C@H](/C(C)=C/[C@@H]3CC[C@@H](O)[C@H](OC)C3)[C@H](C)[C@@H](O)CC1=O)[C@H](C)C[C@@H]2OC [Dihydro-FK-506] | specifically inhibits | – | – | – | – | – | – | – | – | – | – | – |
| C=CC[C@@H]1/C=C(\C)C[C@H](C)C[C@H](OC)[C@H]2O[C@@](O)(C(=O)C(=O)N3CCCC[C@H]3C(=O)O[C@H](/C(C)=C/[C@@H]3CC[C@@H](O)[C@H](OC)C3)[C@H](C)[C@@H](O)CC1=O)[C@H](C)C[C@@H]2OC [FK-506] | specifically inhibited | 90% | no effect | – | – | – | – | – | – | – | – | – |
| [3H]C(C)C([3H])C[C@@H](C)[C@@H](O)[C@H]1C(=O)N[C@@H](CC)C(=O)N(C)CC(=O)N(C)[C@@H](CC(C)C)C(=O)N[C@@H](C(C)C)C(=O)N(C)[C@@H](CC(C)C)C(=O)N[C@@H](C)C(=O)N[C@H](C)C(=O)N(C)[C@@H](CC(C)C)C(=O)N(C)[C@@H](CC(C)C)C(=O)N(C)[C@@H](C(C)C)C(=O)N1C (some centres unmarked) [[^3 H]CsA, [^3 H]-dihydro CsA] | – | – | – | 20,988 cpm | 0 cpm | 5,988 cpm | completely aborgated | – | – | – | – | – |
| [3H]CC([3H])C[C@@H]1/C=C(\C)C[C@H](C)C[C@H](OC)[C@H]2O[C@@](O)(C(=O)C(=O)N3CCCC[C@H]3C(=O)O[C@H](/C(C)=C/[C@@H]3CC[C@@H](O)[C@H](OC)C3)[C@H](C)[C@@H](O)CC1=O)[C@H](C)C[C@@H]2OC (some centres unmarked) [[^3 H]FK-506, [^3 H]-dihydro FK-506] | – | – | – | 0 cpm | 15,315 cpm | 13,585 cpm | heat stable | could not detect specific binding | 4 nM | 1.1 nM | potent inhibitor | 5 times |
